A short description of one data set: physchem. It counts as physicochemical. The note with it: for Soluble amount: 24 h, pH 7.4; for solubility at 24 h: pH 7.4, Soluble amount. Summed up:
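Peptide at 10 mg/ml (purity-corrected) in 100 mM phosphate pH 7.4, alone or with 2.7 mg/ml m-cresol; 1 h gentle agitation, then 24 h at 5 °C. Supernatant after 15 min at 2500 RCF quantified by UHPLC-UV against reference peptide, adjusted for extinction coefficients.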

Data set [1] can be described thus: ThT assay for the assessment of physical stability. It counts as physicochemical. The note with it: ThT buffer system A: 100 mM phosphate buffer pH 7.4; 3 mg/ml, 37° C. From the text:
Low physical stability of a peptide solution may lead to amyloid fibril formation, which is observed as well-ordered, thread-like macromolecular structures in the sample, which eventually may lead to gel formation. Thioflavin T (ThT) is widely used to visualize and quantify the presence of misfolded protein aggregates [Biancalana et al., Biochim. Biophys. Acta 2010, 1804(7), 1405]. […] Enzymol. 1999, 309, 274]. The time course for fibril formation often follows the characteristic shape of a sigmoidal curve and can be separated into three regions: a lag phase, a fast growth phase, and a plateau phase.
The typical fibril formation process starts with the lag phase in which the amount of partially folded peptide turned into fibrils is not significant enough to be detected. The lag-time corresponds to the time the critical mass of the nucleus is built. Afterwards, a drastic elongation phase follows, and fibril concentration increases rapidly.
Investigations were carried out to determine fibrillation tendencies under stress conditions by shaking at 37° C. within Fluoroskan Ascent FL or Fluoroskan Ascent.
For the tests in Fluoroskan Ascent (FL), 200 μl sample were placed into a 96-well mictrotiter plate PS, flat bottom, Greiner Fluotrac No. 655076. Plates were sealed with Scotch Tape (Qiagen). Samples were stressed by continuous cycles of 10 sec shaking at 960 rpm and 50 sec rest period at 37° C. The kinetic was monitored by measuring fluorescence intensity every 20 min.
Peptides were diluted in a buffer system to a final concentration of 3 mg/ml. 20 μl of a 10.1 mM ThT solution in H2O were added to 2 ml of peptide solution to receive a final concentration of 100 μM ThT. For each sample eight replicates were tested.
ThT buffer system A) 100 mM phosphate buffer pH 7.4
ThT buffer system B) 100 mM phosphate buffer pH 7.4, 2.7 mg/ml m-cresol
Lag time in hours (h) in Thioflavin T (ThT) assay of peptide samples was determined in ThT buffer system A as described in Methods.

Another data set concerns the target T1, human GIP receptor (Homo sapiens, UniProt P48546).
T1 construct: human adipocytes endogenously expressing the human GIP receptor; host or cells: human preadipocytes (Lonza) differentiated to adipocytes
T1 sequence (P48546 22-466): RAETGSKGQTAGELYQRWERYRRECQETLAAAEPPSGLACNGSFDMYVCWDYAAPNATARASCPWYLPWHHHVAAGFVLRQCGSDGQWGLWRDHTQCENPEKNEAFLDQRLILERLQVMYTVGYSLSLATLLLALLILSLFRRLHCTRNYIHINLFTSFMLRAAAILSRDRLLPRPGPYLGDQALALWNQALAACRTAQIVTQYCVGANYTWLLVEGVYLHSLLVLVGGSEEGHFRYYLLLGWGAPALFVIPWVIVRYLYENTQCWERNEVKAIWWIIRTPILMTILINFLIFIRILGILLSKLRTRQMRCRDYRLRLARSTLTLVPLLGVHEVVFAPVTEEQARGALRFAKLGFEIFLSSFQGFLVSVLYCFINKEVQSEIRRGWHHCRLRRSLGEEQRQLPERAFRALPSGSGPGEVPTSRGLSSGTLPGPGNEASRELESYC
As to the kind of experiment: cAMP HTRF assay in human adipocytes endogenously expressing the human GIP receptor. Type of data set: cell-based. To be noted: for EC50: read-out: hGIPR EC50; for Emax: read-out: hGIPR Emax. How it is done: For this, one vial of human preadipocytes (˜10^6 cells; Lonza) was thawed in a T-75 cell culture dish.
After 3 days, the cells were washed with PBS and 1.5 ml Trypsin, incubated for 4 min, then resuspended in medium, centrifugated for 10 min @ 300 rcf RT, resuspended again and distributed to four T-75 cell culture dishes.
After 5 days, the cells were washed with PBS and 1.5 ml Trypsin, incubated for 4 min, then resuspended in medium, centrifugated for 10 min @ 300 rcf RT, resuspended again and sawn in T-75 dishes (2.5×10^6 cells per dish) in 15 ml Differentiation medium each.
After 6 days of differentiation, 5000 cells per well were dispensed on a 96-well plate (#CLS3694 from Corning®, Sigma-Aldrich). For measurement of cAMP generation, 25 μL of test compound was added to each well of the 96-well plate, followed by incubation for 30 min at room temperature.
The cAMP generated following test compound stimulation was determined using a kit from Cisbio Corp. based on HTRF (Homogenous Time Resolved Fluorescence). The cAMP assay was performed according to manufacturer's instructions (Cisbio).
The cAMP content of cells was determined using a kit from Cisbio Corp. based on HTRF (Homogenous Time Resolved Fluorescence).

The target of data set [2] is T2, human GIP receptor (hGIPR) (Homo sapiens, UniProt P48546).
T2 sequence (P48546 22-466): T1 sequence (P48546 22-466)
As to the kind of experiment: Binding assay, displacement of [125I]GIP from HEK-293 membranes expressing GIPR. The note with it: [125I]GIP displacement. How it is done:
HEK-293 cells recombinantly over-expressing GIPR or GLP-1R were grown to 50% confluency, washed with warm 1×PBS (Gibco) and detached in HEPES/EDTA-buffer (100 mM HEPES pH 7.5, 5 mM EDTA). Cells were harvested by centrifugation at 4° C. and 3000×g and the pellets were stored at −80° C. until further processing.
After thawing on ice, pellets were resuspended in HEPES/EDTA-buffer and homogenized on ice for 1 min using Ultra-Turray T25. After subsequent sonification the cell debris was removed by centrifugation at 1000×g and 4° C. Supernatants were then ultra-centrifuged at 100000×g and 4° C. under vacuum for 30 min. Pellets were resuspended in HEPES/EDTA/NaCl-buffer (20 mM HEPES, 1 mM EDTA, 150 mM NaCl; add 1 Complete Mini Protease inhibitor cocktail to 10 ml buffer) and protein content was determined via BCA-Protein assay.

*1 amine or outer side, *2 acyl side, *3 side chain or, on linkers, in order; H or OH if unused. Where a SMILES comes first, the peptide text is derived from it. Side-chain parts run from the residue outwards. [ ]: non-standard residue; d: D form. The star is where a group is joined. C18 diacid = O=C(O)CCCCCCCCCCCCCCCCC(=O)*; γGlu = O=C(O)[C@H](CCC(=O)[*:2])N[*:1]; NMeY = CN[C@@H](Cc1ccc(O)cc1)C(=O)O; AEEA = NCCOCCOCC(=O)O; Aib = CC(C)(N)C(=O)O; Sar = CNCC(=O)O

In the data set “physchem”, `CC[C@H](C)[C@H](NC(=O)[C@H](CCCNC(=N)N)NC(=O)[C@H](CC(=O)O)NC(=O)[C@H](CCCCNC(=O)CN(C)C(=O)CN(C)C(=O)CN(C)C(=O)CC[C@H](NC(=O)CCCCCCCCCCCCCCCCC(=O)O)C(=O)O)NC(=O)C(C)(C)NC(=O)[C@@H](NC(=O)[C@H](CO)NC(=O)[C@H](CC(C)C)NC(=O)[C@H](CC(=O)O)NC(=O)[C@H](CO)NC(=O)[C@@H](NC(=O)[C@H](Cc1ccccc1)NC(=O)[C@@H](NC(=O)CNC(=O)[C@H](CCC(=O)O)NC(=O)C(C)(C)NC(=O)[C@@H](N)Cc1ccc(O)cc1)[C@@H](C)O)[C@@H](C)CC)[C@@H](C)CC)C(=O)N[C@@H](Cc1c[nH]cn1)C(=O)N[C@@H](CCC(N)=O)C(=O)NC(C)(C)C(=O)N[C@@H](CCC(=O)O)C(=O)N[C@@H](Cc1ccccc1)C(=O)N[C@H](C(=O)N[C@@H](CCC(=O)O)C(=O)N[C@@H](Cc1c[nH]c2ccccc12)C(=O)N[C@@H](CC(C)C)C(=O)N[C@@H](CC(C)C)C(=O)N[C@@H](C)C(=O)N[C@@H](CCC(N)=O)C(=O)NCC(=O)N1CCC[C@H]1C(=O)N[C@@H](CO)C(=O)N[C@@H](CO)C(=O)NCC(=O)N[C@@H](C)C(=O)N1CCC[C@H]1C(=O)N1CCC[C@H]1C(=O)N1CCC[C@H]1C(=O)N[C@@H](CO)C(N)=O)[C@@H](C)CC` [SEQ ID NO: 6, H2N-Y-Aib-E-G-T-F-I-S-D-I-S-I-Aib-K[{N-MeGly}3-gGlu-C18OH]-D-R-I-H-Q-Aib-E-F-I-E-W-I-L-A-Q-G-P-S-S-G-A-P-P-P-S-NH2] (H-Y[Aib]EGTFISDLSI[Aib]K([Sar-Sar-Sar-γGlu-C18 diacid])DRIHQ[Aib]EFIEWLLAQGPSSGAPPPS-NH2) gave a Soluble amount of more than 8.9 mg/mL and a solubility at 24 h of more than 10800 µg/mL. In data set [1], the “Increase in FI” value was “no” and the “Lag time before increase” value is reported as more than 45 h. In addition, on human GIP receptor, the EC50 was 0.3 nM and the Emax stood at 112%. Moreover, the IC50 in data set [2] was determined as 0.1 nM.
In “physchem”, `CC[C@H](C)[C@H](NC(=O)[C@H](CCCNC(=N)N)NC(=O)[C@H](CC(=O)O)NC(=O)[C@H](CCCCNC(=O)COCCOCCNC(=O)COCCOCCNC(=O)CC[C@H](NC(=O)CCCCCCCCCCCCCCCCC(=O)O)C(=O)O)NC(=O)C(C)(C)NC(=O)[C@@H](NC(=O)[C@H](CO)NC(=O)[C@H](CC(C)C)NC(=O)[C@H](CC(=O)O)NC(=O)[C@H](CO)NC(=O)[C@@H](NC(=O)[C@H](Cc1ccccc1)NC(=O)[C@@H](NC(=O)CNC(=O)[C@H](CCC(=O)O)NC(=O)C(C)(C)NC(=O)[C@H](Cc1ccc(O)cc1)NC)[C@@H](C)O)[C@@H](C)CC)[C@@H](C)CC)C(=O)N[C@@H](Cc1c[nH]cn1)C(=O)N[C@@H](CCC(N)=O)C(=O)NC(C)(C)C(=O)N[C@@H](CCC(=O)O)C(=O)N[C@@H](Cc1ccccc1)C(=O)N[C@H](C(=O)N[C@@H](CCC(=O)O)C(=O)N[C@@H](Cc1c[nH]c2ccccc12)C(=O)N[C@@H](CC(C)C)C(=O)N[C@@H](CC(C)C)C(=O)N[C@@H](C)C(=O)N[C@@H](CCC(N)=O)C(=O)NCC(=O)N1CCC[C@H]1C(=O)N[C@@H](CO)C(=O)N[C@@H](CO)C(=O)NCC(=O)N[C@@H](C)C(=O)N1CCC[C@H]1C(=O)N1CCC[C@H]1C(=O)N1CCC[C@H]1C(=O)N[C@@H](CO)C(N)=O)[C@@H](C)CC` [SEQ ID NO: 8, MeHN-Y-Aib-E-G-T-F-I-S-D-I-S-I-Aib-K[{AEEA}2-gGlu-C180H]-D-R-I-H-Q-Aib-E-F--E-W-I-L-A-Q-G-P-S-S-G-A-P-P-P-S-NH2] (H-[NMeY][Aib]EGTFISDLSI[Aib]K([AEEA-AEEA-γGlu-C18 diacid])DRIHQ[Aib]EFIEWLLAQGPSSGAPPPS-NH2) displayed a Soluble amount of more than 6.4 mg/mL and a solubility at 24 h of more than 7500 µg/mL. In data set [1], the “Increase in FI” value is on record as “no” and the “Lag time before increase” value is more than 45 h. Moreover, at human GIP receptor, the EC50 is 0.5 nM and the Emax is 116%. The compound also displayed an IC50 in data set [2] of 0.2 nM.

The record behind these values is patent publication US20230103631A1, “PEPTIDES AS SELECTIVE GIP RECEPTOR AGONISTS” (Sanofi, priority 2020, published 2023).
